In US12173088B2, “Anti-microbial peptides” (priority 2018, dated 2024):
Converted amounts (≈) assume the structure as drawn. Square brackets hold non-standard residues; d marks the D form. Peptide text beside a SMILES is read from it.

Legend:
[1] = tested on: trypsin, chymotrypsin, S. aureus V8 protease, Proteinase K
Description: Briefly, a solution (100 μL) of peptide/protease molar ratio, 40:1 was made in 10 mM PBS buffer (pH 8.0) and was incubated at 37° C. Aliquots (10 μL) of the reaction solutions were taken after 1, 3 and 6 days and immediately mixed with 20 μL of 2×SDS loading buffer and boiled in a water bath to stop the reaction. For the SDS gel analysis, 10 μL of each sample was loaded to the well of a 5% stacking/18% resolving tricine gel and run at a constant current of 35 mA.

[2] = tested on: P. aeruginosa PAO1; assay type: cell-based, Pseudomonas aeruginosa; conditions: PAO1
In short: (§1)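 Broth microdilution in tryptic soy broth: log-phase cultures (OD600 ≈0.5) diluted to OD600 0.001, given two-fold peptide dilutions, incubated overnight at 37° C. Growth read at 630 nm.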

[3] = tested on: E. faecium V286-17 (VRE); experiment: microbe, parasite or virus in culture; assay type: cell-based, Enterococcus faecium; conditions: V286-17 (VRE)
In short: (§2)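 Peptides were serially diluted two-fold against bacteria grown in tryptic soy broth to log phase (OD600 ≈0.5), then seeded at OD600 0.001. Plates were held overnight at 37° C and read at 630 nm. USA300 was also tested at pH 6.8, 7.2 and 8.0, with 150 mM NaCl or 5-10% serum, plasma or peritoneal fluid.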

[4] = Hemolytic assay; assay type: cell-based, human; conditions: human, human red blood cells, 2% (v/v)
In short: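 HL50 marks the peptide level lysing half of a 2% (v/v) suspension of washed human erythrocytes after 1 h at 37 °C. Released hemoglobin measured at 545 nm, scaled between PBS (0%) and Triton X-100 (2% or 1%; 100%). Selectivity index computed as HL50 over MIC.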

[5] = tested on: E. coli E423-17; experiment: microbe, parasite or virus in culture; assay type: cell-based, Escherichia coli; conditions: E423-17; read-out: MIC E. coli E423-17
In short: as §2

[6] = tested on: E. coli ATCC 25922; assay type: cell-based, Escherichia coli; conditions: ATCC 25922
In short: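 Peptides, serially diluted two-fold, were incubated overnight at 37 °C with E. coli ATCC 25922 from log-phase cultures adjusted to OD600 0.001. Turbidity at 630 nm served as the read-out in this broth microdilution format.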

[7] = tested on: S. aureus USA300; experiment: microbe, parasite or virus in culture; assay type: cell-based, Staphylococcus aureus
In short: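 Broth microdilution: log-phase cultures in tryptic soy broth diluted to OD600 0.001, exposed to two-fold diluted peptides at 37° C overnight, growth read at 630 nm. Medium effects on S. aureus USA300 tested with up to 200 mM NaCl, 2 mM CaCl2, 5-10% human serum, mouse plasma, fluids or tissue homogenate supernatants.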

[8] = tested on: S. aureus M838-17 (MRSA); experiment: microbe, parasite or virus in culture; assay type: cell-based, Staphylococcus aureus; conditions: M838-17; read-out: MIC S. aureus M838-17 (MRSA)
In short: as §2

[9] = tested on: P. aeruginosa E411-17; experiment: microbe, parasite or virus in culture; assay type: cell-based, Pseudomonas aeruginosa; conditions: E411-17; read-out: MIC P. aeruginosa E411-17
In short: as §2

[10] = tested on: K. pneumoniae E406-17; experiment: microbe, parasite or virus in culture; assay type: cell-based, Klebsiella pneumoniae; conditions: E406-17; read-out: MIC K. pneumoniae E406-17
In short: as §1

[11] = tested on: E. coli ampC E416-7; assay type: cell-based, Escherichia coli; conditions: Table 7
Description: The bacterial strains used include the Gram-positive strains Staphylococcus aureus USA300 LAC, S. epidermidis 1457, and Bacillus subtilis 168, as well as the Gram-negative isolates Escherichia coli K12 and Acinetobacter baumannii B2367-12. Additional, drug resistance strains include Gram-positive Enterococcus faecium V286-17 (VRE) and S. aureus M838-17 (MRSA) and Gram-negative E. coli E423-17, E. coli E416-17 (ampC), and P. aeruginosa E411-17. Bacteria were cultivated in tryptic soy broth (TSB) (BD Bioscience, MD).
The antibacterial activity of peptides was evaluated using a standard broth microdilution protocol with minor modifications as described (Mishra, et al. (2012) J. Am. Chem. Soc., 134:12426-12429). In brief, logarithmic phase bacterial cultures (i.e., optical density at 600 nm≈0.5) were diluted to OD600 0.001 and partitioned into a 96-well polystyrene microplate at 90 μL per well. After treatment with 10 μL of peptide solutions two fold diluted to various concentrations, microplates were incubated at 37° C. overnight and read on a ChroMate® 4300 Microplate Reader at 630 nm (GMI, Ramsey, MN). […] To study the influence of medium conditions on the antimicrobial activity of peptides against S. aureus USA300, up to 200 mM sodium chloride (NaCl), 2 mM of calcium chloride, 5-10% of human serum, mouse plasma, fluid, or supernatants of tissue homogenates were included into the assays.

[12] = tested on: S. aureus USA300; conditions: starting template; cited from earlier work

In the case of `CC(C)C[C@@H](NC(=O)[C@@H](CC(C)C)NC(=O)[C@@H](CCCCN)NC(=O)[C@@H](CC(C)C)NC(=O)CNC(=O)[C@@H](CC(C)C)NC(=O)[C@@H](CO)NC(=O)[C@@H](CC(C)C)NC(=O)[C@@H](CC(C)C)NC(=O)[C@@H](CC(C)C)NC(=O)[C@@H](CCCCN)NC(=O)[C@@H](CC(C)C)NC(=O)CN)C(N)=O` [DFT561d, GLKLLLSLGLKLL] (H-G[dL][dK][dL][dL][dL][dS][dL]G[dL][dK][dL][dL]-NH2; N-terminus and C-terminus assumed), the “Protease stability” value [1] was “resistant to proteases”, the “MIC PA (P. aeruginosa PAO1)” value [2] was >25 µM and the “MIC E. faecium V286-17 (VRE)” value [3] was 3.1 to 6.25 µM. For the same molecule, the HC50 at 1 h [4] was > 300 µM, the MIC [5] was >50 µM and the “MIC EC (E. coli ATCC 25922)” value [6] was >25 µM. For the same molecule, the MIC ([7]; USA300) was 3.1 µM (≈ 4.28 µg/mL), the MIC ([7]; USA300, pH 6.8) was 3.1 µM (≈ 4.28 µg/mL) and the MIC ([7]; USA300, pH 7.4) was 1.6 µM (≈ 2.21 µg/mL). For the same molecule, the MIC ([7]; USA300, pH 8) was 1.6 µM (≈ 2.21 µg/mL), the MIC [8] was 3.1 µM (≈ 4.28 µg/mL) and the MIC [9] was >50 µM. The MIC [10] was >50 µM and the “MIC E. coli ampC E416-7” value [11] was >50 µM.
For temporin-SHf, the “MIC against MRSA” value [12] is given as 25 µM.
